Patent US20230167073A1 (Teijin Pharma Limited, priority 2020, published 2023)

What follows are compounds tested against T1, Human TRPC6 (Homo sapiens, UniProt Q9Y210) (assay: Evaluation of TRPC6 channel inhibitory activity (1), FLIPR Calcium 5 Assay Kit, OAG stimulation (Compound Nos. 1-1293)). Conditions: Human TRPC6 stably-expressing cells, OAG 30 μM, FLIPR Calcium 5 Assay Kit; read-out: Inhibitory activity (pIC50 class) (converted).
T1 construct: expressed in transfected cells
T1 sequence (Q9Y210 1-931): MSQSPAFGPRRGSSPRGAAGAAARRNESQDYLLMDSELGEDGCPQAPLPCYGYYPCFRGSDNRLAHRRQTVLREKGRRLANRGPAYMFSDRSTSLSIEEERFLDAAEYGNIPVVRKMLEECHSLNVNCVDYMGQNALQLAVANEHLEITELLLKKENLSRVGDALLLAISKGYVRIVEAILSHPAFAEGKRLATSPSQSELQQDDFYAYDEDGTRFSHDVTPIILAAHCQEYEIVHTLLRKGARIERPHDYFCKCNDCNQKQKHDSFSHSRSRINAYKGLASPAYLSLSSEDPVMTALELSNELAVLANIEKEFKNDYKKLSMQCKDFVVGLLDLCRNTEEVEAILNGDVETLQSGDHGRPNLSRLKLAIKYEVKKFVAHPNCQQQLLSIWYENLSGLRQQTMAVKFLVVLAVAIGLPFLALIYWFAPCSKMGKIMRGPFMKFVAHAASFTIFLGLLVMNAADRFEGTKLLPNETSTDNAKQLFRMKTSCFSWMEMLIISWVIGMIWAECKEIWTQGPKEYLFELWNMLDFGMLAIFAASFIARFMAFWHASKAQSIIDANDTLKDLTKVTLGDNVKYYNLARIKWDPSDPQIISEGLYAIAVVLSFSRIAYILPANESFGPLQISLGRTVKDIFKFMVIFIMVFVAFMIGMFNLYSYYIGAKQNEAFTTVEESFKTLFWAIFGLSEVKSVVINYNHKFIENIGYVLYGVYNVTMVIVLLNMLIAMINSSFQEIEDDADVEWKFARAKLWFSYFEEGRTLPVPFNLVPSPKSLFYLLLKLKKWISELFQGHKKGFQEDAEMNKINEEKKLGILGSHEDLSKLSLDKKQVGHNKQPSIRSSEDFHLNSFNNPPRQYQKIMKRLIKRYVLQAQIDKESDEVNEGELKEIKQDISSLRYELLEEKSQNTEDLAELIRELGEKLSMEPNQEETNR
Format: cell-based
How it was run: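 TRPC6 (human) stable cells, 24 h culture; Ca5 no-wash dye + probenecid 30 min; cpd 20 min; OAG 30 μM final; ΔF (pre-cpd min to post-OAG max); 0%/100% = no cpd / no cpd + no OAG; 4PL → pIC50, binned +/++/+++.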

Cc1nc(Oc2cc(C#N)ccc2-n2cc(CN)cn2)cc(N2CCOCC2)n1 [compound 298, 4-[4-(aminomethyl)pyrazol-1-yl]-3-(2-methyl-6-morpholin-4-ylpyrimidin-4-yl)oxybenzonitrile] and Cc1nc(Oc2cc(C#N)ccc2-n2cc(C(O)C(C)(C)N)cn2)cc(N2CCOCC2)n1 (stereo not shown) [compound 302, 4-[4-(2-amino-1-hydroxy-2-methylpropyl)pyrazol-1-yl]-3-(2-methyl-6-morpholin-4-ylpyrimidin-4-yl)oxybenzonitrile] fall in the same range of IC50: 0.01 to 1 µM for the first, 0.01 to 1 µM for the second.

First: Cc1cc(Oc2cc(C#N)ccc2-c2ccc(CCN)cn2)n(C)n1 [compound 299, 4-[5-(2-aminoethyl)pyridin-2-yl]-3-(2,5-dimethylpyrazol-3-yl)oxybenzonitrile]
Second: CCOC(=O)c1cc(Oc2cc(C#N)ccc2-c2ccc(CCN)cn2)n(C)n1 [compound 309, ethyl 5-[2-[5-(2-aminoethyl)pyridin-2-yl]-5-cyanophenoxy]-1-methylpyrazole-3-carboxylate]
The IC50 of the first is lower: < 0.01 µM for the first, 0.01 to 1 µM for the second.

First: Cn1nccc1Oc1cc(C#N)ccc1-c1ccc(CCN)cn1 [compound 300, 4-[5-(2-aminoethyl)pyridin-2-yl]-3-(2-methylpyrazol-3-yl)oxybenzonitrile]
Second: Cn1nccc1Oc1cc(C#N)ccc1-c1ncc(CCN)cn1 [compound 311, 4-[5-(2-aminoethyl)pyrimidin-2-yl]-3-(2-methylpyrazol-3-yl)oxybenzonitrile]
The IC50 of the first is lower: 0.01 to 1 µM for the first, > 1 µM for the second.

Compared with Cn1nc(-c2ccccc2)cc1Oc1cc(C#N)ccc1-c1ccc(C(O)C(C)(C)N)cn1 (stereo not shown) [compound 301, 4-[5-(2-amino-1-hydroxy-2-methylpropyl)pyridin-2-yl]-3-(2-methyl-5-phenylpyrazol-3-yl)oxybenzonitrile], Cn1nc(-c2ccccc2)cc1Oc1cc(C#N)ccc1-c1ccc(C(F)(F)CN)cn1 [compound 308, 4-[5-(2-amino-1,1-difluoroethyl)pyridin-2-yl]-3-(2-methyl-5-phenylpyrazol-3-yl)oxybenzonitrile] is higher in IC50: < 0.01 µM for the first, 0.01 to 1 µM for the second.

Cc1cc(Oc2cc(C#N)ccc2-c2ccc(C(O)C(C)(C)N)cn2)cc(N2CCOCC2)n1 (stereo not shown) [compound 303, 4-[5-(2-amino-1-hydroxy-2-methylpropyl)pyridin-2-yl]-3-(2-methyl-6-morpholin-4-ylpyridin-4-yl)oxybenzonitrile] and Cc1cc(Oc2cc(C#N)ccc2-c2ccc(C(F)(F)CN)cn2)cc(N2CCOCC2)n1 [compound 307, 4-[5-(2-amino-1,1-difluoroethyl)pyridin-2-yl]-3-(2-methyl-6-morpholin-4-ylpyridin-4-yl)oxybenzonitrile] fall in the same range of IC50: 0.01 to 1 µM for the first, 0.01 to 1 µM for the second.

Compared with Cc1cc(Oc2cc(C#N)ccc2-n2cc(CCN)cn2)n(C)n1 [compound 304, 4-[4-(2-aminoethyl)pyrazol-1-yl]-3-(2,5-dimethylpyrazol-3-yl)oxybenzonitrile], Cc1cc(Oc2cc(C#N)ccc2-c2ncc(CCN)cn2)n(C)n1 [compound 305, 4-[5-(2-aminoethyl)pyrimidin-2-yl]-3-(2,5-dimethylpyrazol-3-yl)oxybenzonitrile] is lower in IC50: > 1 µM for the first, 0.01 to 1 µM for the second.

N#Cc1ccc(-c2ccc(CCN)cc2)c(Oc2cc(-c3ccccc3)no2)c1 [compound 306, 4-[4-(2-aminoethyl)phenyl]-3-[(3-phenyl-1,2-oxazol-5-yl)oxy]benzonitrile] and Cn1nc(-c2ccccc2)cc1Oc1cc(C#N)ccc1-c1ccc(CCN)nn1 [compound 312, 4-[6-(2-aminoethyl)pyridazin-3-yl]-3-(2-methyl-5-phenylpyrazol-3-yl)oxybenzonitrile] cannot be ordered by IC50: < 0.01 µM for the first, < 0.01 µM for the second.

Cn1nc(-c2ccccc2)cc1Oc1cc(C#N)ccc1-c1ncc(CN)cn1 [compound 310, 4-[5-(aminomethyl)pyrimidin-2-yl]-3-(2-methyl-5-phenylpyrazol-3-yl)oxybenzonitrile] and Cn1nc(-c2ccccc2)cc1Oc1cc(C#N)ccc1-c1cnc(CCN)cn1 [compound 313, 4-[5-(2-aminoethyl)pyrazin-2-yl]-3-(2-methyl-5-phenylpyrazol-3-yl)oxybenzonitrile] cannot be ordered by IC50: < 0.01 µM for the first, < 0.01 µM for the second.
